Patent US8987293B2, “Morphinans useful as analgesics” (Phoenix Pharmalabs, Inc., priority 2010, dated 2015)

Key:
[1] = molecular target: T1, human delta receptor (Homo sapiens, UniProt P41143); assay: Opioid receptor binding affinity, [3H]Cl-DPDPE, CHO cell membranes
T1 construct: expressed in transfected cells; host or cells: CHO cells

[2] = molecular target: T2, human kappa receptor (Homo sapiens, UniProt P41145); assay: Opioid receptor binding affinity, [3H]U69593, CHO cell membranes
T2 construct: expressed in transfected cells; host or cells: CHO cells

[3] = molecular target: T1, human delta receptor; assay: [35S]GTP γS binding functional assay, CHO cell membranes; format: biochemical
[4] = molecular target: T2, human kappa receptor; assay: as above; format: biochemical; settings: 1 hr at 25 C

T1 sequence (P41143 whole entry): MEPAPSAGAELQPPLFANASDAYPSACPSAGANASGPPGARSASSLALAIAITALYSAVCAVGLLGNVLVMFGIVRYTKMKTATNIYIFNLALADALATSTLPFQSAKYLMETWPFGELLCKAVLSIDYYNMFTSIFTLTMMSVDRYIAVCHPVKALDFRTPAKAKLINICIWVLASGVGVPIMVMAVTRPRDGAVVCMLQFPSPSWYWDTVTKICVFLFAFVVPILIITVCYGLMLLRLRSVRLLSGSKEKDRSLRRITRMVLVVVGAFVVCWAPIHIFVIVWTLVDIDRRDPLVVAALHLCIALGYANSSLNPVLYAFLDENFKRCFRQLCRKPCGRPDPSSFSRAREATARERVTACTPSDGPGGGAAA
T2 sequence (P41145 whole entry): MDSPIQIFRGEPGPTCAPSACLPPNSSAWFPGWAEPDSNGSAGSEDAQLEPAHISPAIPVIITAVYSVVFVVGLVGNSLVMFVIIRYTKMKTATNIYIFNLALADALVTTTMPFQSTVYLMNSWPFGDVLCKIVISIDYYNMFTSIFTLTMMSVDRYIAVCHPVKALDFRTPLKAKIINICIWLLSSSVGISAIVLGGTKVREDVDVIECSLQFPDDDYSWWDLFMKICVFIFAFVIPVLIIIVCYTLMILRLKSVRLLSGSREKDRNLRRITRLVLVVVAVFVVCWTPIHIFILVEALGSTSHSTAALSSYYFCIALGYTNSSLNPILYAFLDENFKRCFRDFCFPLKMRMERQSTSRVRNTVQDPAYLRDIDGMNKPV

C[C@H](C1CC1)N1CC[C@]23CCCC[C@H]2[C@H]1Cc1ccc(O)cc13 [Compound 5]
Ki [1]: 2.47 ± 0.1 nM
Ki [2]: 0.29 ± 0.1 nM
EC50 [3]: 9.01 ± 2.6 nM
percent stimulation at the delta receptor ([3]; [35S]GTP γS, 1 hr at 25 C): 39.8±3.9%
percent stimulation at the kappa receptor [4]: 41.7±5.0%
